The values that follow come from paper PMC5869419 (Journal of Natural Products, 2018).

Where two headings read alike, the source gives them in different places.

The subject of series [1] is H3N2 influenza virus A/Hong Kong/68 (HK/68). Briefly: CPE inhibition assay with HK/68 in MDCK cells. Type of series: cell-based. As to conditions: for IC50: Influenza A virus; for anti-influenza virus activity (in words): HK/68 and Jena/8178, CPE inhibition in MDCK cells; for selectivity index IAV HK/68 [CC50/IC50]: CC50 in MDCK cells / IC50 HK/68.
Series [2] relates to H1N1 influenza virus A/Jena/8178/09 (Jena/8178). Nature of the series: CPE inhibition assay with Jena/8178 in MDCK cells. Type of series: cell-based. As to conditions: for IC50: Influenza A virus, H1N1, MDCK, 48 h, read-out: IC50 of CPE IAV Jena/8178; for selectivity index IAV Jena/8178 [CC50/IC50]: CC50 in MDCK cells / IC50 Jena/8178.
The test system of series [3] is MDCK cells.
Series [4] is described as follows: in vitro. As to conditions: dog.
Setting [5] is: H3N2, MDCK, 48 h, read-out: IC50 of CPE IAV HK/68.
[6] abbreviates: H3N2, HK/68 and Jena/8178 together, CPE inhibition in MDCK cells, read-out: IC50 values, anti-influenza virus activity stated for both strains together.
The mark [7] stands for this setting: HK/68 and Jena/8178 together, CPE inhibition in MDCK cells.

As for `CC1(C)C[C@H]2C3=CC[C@@H]4[C@@]5(C)C[C@@H](O)[C@H](O)C(C)(C)[C@@H]5CC[C@@]4(C)[C@]3(C)CC[C@@]2(C(=O)O)C[C@H]1OC(=O)/C=C/c1ccccc1` [21-cinnamoyloxy-maslinic acid], the IC50 was 11.3 ± 7.35 µM in series [1] (setting [5]), 7 to 11 µM in series [1] (setting [6]) and 6.9 ± 2.97 µM in series [2]. Moreover, in series [3], the “CC50 in MDCK cells” value is reported as “lost their cytotoxicity”. The molecule also came in with a CC50 at 72 h in series [4] greater than 100 µM.

Turning to `CC1(C)C[C@H]2C3=CC[C@@H]4[C@@]5(C)CC[C@H](O)C(C)(C)[C@@H]5CC[C@@]4(C)[C@]3(C)CC[C@@]2(C(=O)O)C[C@H]1OC(=O)/C=C/c1ccccc1` [21-cinnamoyloxy-oleanolic acid], the IC50 in series [1] (setting [5]) was 8.9 ± 3.95 µM; in series [1] (setting [6]) it was 7 to 11 µM; in series [2], 6.8 ± 4.12 µM. The “CC50 in MDCK cells” value in series [3] is given as “lost their cytotoxicity”. The molecule further gave a CC50 at 72 h in series [4] greater than 100 µM.

Turning to `C=C(C)[C@@H]1CC[C@]2(C(=O)O)CC[C@]3(CO)[C@H](CC[C@@H]4[C@@]5(C)C[C@@H](O)[C@H](O)C(C)(C)[C@@H]5CC[C@]43C)[C@@H]12` [27-hydroxyalphitolic acid], in series [2], the “selectivity index IAV Jena/8178 [CC50/IC50]” value was greater than 4 and the IC50 worked out at 26.5 ± 4.71 µM. For the same molecule, the CC50 in series [4] was greater than 100 µM.

For the molecule `C=C(C)[C@@H]1CC[C@]2(C(=O)O)CC[C@]3(C)[C@H](CC[C@@H]4[C@@]5(C)C[C@@H](O)[C@H](O[C@@H]6O[C@H](CO)[C@@H](O)[C@H](O)[C@H]6O[C@@H]6OC[C@@H](O)[C@H](O)[C@H]6O)C(C)(C)[C@@H]5CC[C@]43C)[C@@H]12` [Compound 1, 3-O-β-D-Xylopyranosyl-(1→2)-β-D-glucopyranosylalphitolic acid], the “anti-influenza virus activity (in words)” value in series [1] is “only weak or no anti-influenza virus activity”. Moreover, in series [2], the IC50 came to 38.6 ± 15.7 µM. Besides, in series [4], the CC50 was greater than 100 µM.

For `C=C(C)[C@@H]1CC[C@]2(C(=O)O)CC[C@]3(C)[C@H](CC[C@@H]4[C@@]5(C)C[C@@H](O)[C@H](O[C@@H]6O[C@H](CO)[C@@H](O[C@@H]7O[C@H](C)[C@@H](O)[C@H](O)[C@@H]7O)[C@H](O)[C@H]6O[C@@H]6OC[C@@H](O)[C@H](O)[C@H]6O)C(C)(C)[C@@H]5CC[C@]43C)[C@@H]12` [Compound 2, 3-O-β-D-Xylopyranosyl-(1→2)-[α-L-rhamnopyranosyl-(1→4)]-β-D-glucopyranosylalphitolic acid], the “selectivity index IAV HK/68 [CC50/IC50]” value in series [1] turned out to be 11. For the same molecule, in series [1] (setting [5]), the IC50 amounted to 1.1 ± 0.44 µM. For the same molecule, in series [2], the “selectivity index IAV Jena/8178 [CC50/IC50]” value is 6 and the IC50 was 1.9 ± 0.08 µM. For the same molecule, in series [4], the CC50 at 72 h came to 10.4 ± 0.52 µM.

Regarding `C=C(C)[C@@H]1CC[C@]2(C(=O)O)CC[C@]3(CO)[C@H](CC[C@@H]4[C@@]5(C)C[C@@H](O)[C@H](O[C@@H]6O[C@H](CO)[C@@H](O)[C@H](O)[C@H]6O[C@@H]6OC[C@@H](O)[C@H](O)[C@H]6O)C(C)(C)[C@@H]5CC[C@]43C)[C@@H]12` [Compound 3, 3-O-β-D-Xylopyranosyl-(1→2)-β-D-glucopyranosyl-27-hydroxyalphitolic acid], the “anti-influenza virus activity (in words)” value in series [1] was “only weak or no anti-influenza virus activity”. In series [4], this molecule yielded a CC50 greater than 100 µM.

Take `C=C(C)[C@@H]1CC[C@]2(C(=O)O)CC[C@]3(CO)[C@H](CC[C@@H]4[C@@]5(C)C[C@@H](O)[C@H](O[C@@H]6O[C@H](CO)[C@@H](O)[C@H](O)[C@H]6O[C@@H]6O[C@H](CO)[C@@H](O)[C@H](O)[C@H]6O)C(C)(C)[C@@H]5CC[C@]43C)[C@@H]12` [Compound 4, 3-O-β-D-Glucopyranosyl-(1→2)-β-D-glucopyranosyl-27-hydroxyalphitolic acid]: the “anti-influenza virus activity (in words)” value in series [1] is recorded as “only weak or no anti-influenza virus activity”. For the same molecule, in series [2], the “selectivity index IAV Jena/8178 [CC50/IC50]” value is reported as greater than 2 and the IC50 was found to be 43 ± 11.8 µM. This molecule registered a CC50 in series [4] greater than 100 µM.

On to `C[C@H]1O[C@@H](O[C@H]2[C@H](O)[C@@H](O[C@@H]3OC[C@@H](O)[C@H](O)[C@H]3O)[C@H](O[C@H]3[C@H](O)C[C@]4(C)[C@H]5CC=C6[C@@H]7CC(C)(C)CC[C@]7(C(=O)O)CC[C@@]6(C)[C@]5(C)CC[C@H]4C3(C)C)O[C@@H]2CO)[C@@H](O)[C@@H](O)[C@@H]1O` [Compound 5, 3-O-β-D-Xylopyranosyl-(1→2)-[α-L-rhamnopyranosyl-(1→4)]-β-D-glucopyranosylmaslinic acid], for which, in series [1], the “selectivity index IAV HK/68 [CC50/IC50]” value is 9. In series [1] (setting [7]), the “IC50 values, anti-influenza virus activity stated for both strains together” value is given as “low micromolar range”. The IC50 in series [1] (setting [5]) was found to be 1.7 ± 0.07 µM. The CC50 at 72 h in series [4] came out at 15.5 ± 1.69 µM.

As to `C[C@H]1O[C@@H](O[C@H]2[C@H](O)[C@@H](O[C@@H]3OC[C@@H](O)[C@H](O)[C@H]3O)[C@H](O[C@H]3[C@H](O)C[C@]4(C)[C@H]5CC=C6[C@@H]7CC(C)(C)[C@H](OC(=O)/C=C/c8ccccc8)C[C@]7(C(=O)O)CC[C@@]6(C)[C@]5(C)CC[C@H]4C3(C)C)O[C@@H]2CO)[C@@H](O)[C@@H](O)[C@@H]1O` [Compound 6, 3-O-β-D-Xylopyranosyl-(1→2)-[α-L-rhamnopyranosyl-(1→4)]-β-D-glucopyranosyl-21-cinnamoyloxymaslinic acid], in series [1], the “selectivity index IAV HK/68 [CC50/IC50]” value stood at 3. For the same molecule, in series [1] (setting [7]), the “IC50 values, anti-influenza virus activity stated for both strains together” value is on record as “low micromolar range”. For the same molecule, the IC50 in series [1] (setting [5]) amounted to 1.8 ± 0.23 µM. In addition, in series [2], the “selectivity index IAV Jena/8178 [CC50/IC50]” value is 3 and the IC50 came out at 1.8 ± 0.03 µM. Also, the CC50 at 72 h in series [4] was 5.8 ± 0.69 µM.

Take `C[C@H]1O[C@H](O[C@H]2[C@H](O[C@H]3[C@H](O[C@H]4CC[C@]5(C)[C@H]6CC=C7[C@@H]8CC(C)(C)[C@H](OC(=O)/C=C/c9ccccc9)C[C@]8(C(=O)O)CC[C@@]7(C)[C@]6(C)CC[C@H]5C4(C)C)OC[C@@H](O)[C@@H]3O)OC[C@@H](O)[C@@H]2O)[C@@H](O)[C@@H](O)[C@@H]1O` [Compound 7, 3-O-α-L-Rhamnopyranosyl-(1→2)-β-D-xylopyranosyl-(1→2)-β-D-xylopyranosyl-21-cinnamoyloxyoleanolic acid]: the “selectivity index IAV HK/68 [CC50/IC50]” value in series [1] came out at 31. In addition, the IC50 in series [1] (setting [5]) was 0.05 ± 0.02 µM; in series [1] (setting [6]), 0.05 to 0.27 µM; in series [2], 0.27 ± 0.13 µM. Also, the “selectivity index IAV Jena/8178 [CC50/IC50]” value in series [2] was found to be 6. Also, in series [4], the CC50 at 72 h worked out at 1.5 ± 0.8 µM.

Take `C[C@H]1O[C@H](O[C@@H]2CO[C@@H](O[C@H]3CC[C@]4(C)[C@H]5CC=C6[C@@H]7CC(C)(C)[C@H](OC(=O)/C=C/c8ccccc8)C[C@]7(C(=O)O)CC[C@@]6(C)[C@]5(C)CC[C@H]4C3(C)C)[C@H](O[C@@H]3OC[C@@H](O)[C@H](O)[C@H]3O[C@H]3O[C@H](C)[C@@H](O)[C@H](O)[C@@H]3O)[C@H]2O)[C@@H](O)[C@@H](O)[C@@H]1O` [Compound 8, 3-O-α-L-Rhamnopyranosyl-(1 →2)-β-D-xylopyranosyl-(1 →2)-[α-L-rhamnopyranosyl-(1 →4)]-β-D-xylopyranosyl-21-cinnamoyloxyoleanolic acid]: in series [1], the “selectivity index IAV HK/68 [CC50/IC50]” value came to 7. In addition, the IC50 in series [1] (setting [5]) is 0.17 ± 0.18 µM; in series [1] (setting [6]), 0.05 to 0.27 µM; in series [2], 0.16 ± 0.07 µM. The “selectivity index IAV Jena/8178 [CC50/IC50]” value in series [2] is on record as 7. The CC50 at 72 h in series [4] was determined as 1.2 ± 0.1 µM.

In turn, `C=C(C)[C@@H]1CC[C@]2(C(=O)O)CC[C@]3(C)[C@H](CC[C@@H]4[C@@]5(C)C[C@@H](O)[C@H](O)C(C)(C)[C@@H]5CC[C@]43C)[C@@H]12` [alphitolic acid] registered a CC50 at 72 h in series [4] of 49.9 ± 6.68 µM.

`CC1(C)CC[C@]2(C(=O)O)CC[C@]3(C)C(=CC[C@@H]4[C@@]5(C)C[C@@H](O)[C@H](O)C(C)(C)[C@@H]5CC[C@]43C)[C@@H]2C1` [maslinic acid] registered a CC50 at 72 h in series [4] of 23.3 ± 2.93 µM.

For `CCOC(=O)C1=C[C@@H](OC(CC)CC)[C@H](NC(C)=O)[C@@H](N)C1` [oseltamivir, reference compound], the IC50 in series [1] (setting [5]) stood at 0.003 ± 0.001 µM; in series [2], 0.064 ± 0.013 µM.
